Assay [1] has as its target T1, human A2a adenosine receptor (Homo sapiens, UniProt P29274).
T1 construct: purchased PerkinElmer RB-HA2a; host or cells: HEK293 plasma membrane
Kind of assay: Ligand Binding Assay for Adenosine A2a Receptor (A2A-B). The conditions noted are these: HEK293 cell plasma membrane, radioligand [3H]CGS21680. On the procedure: Ligand Binding Assay for Adenosine A2a Receptor (A2A-B)
Ligand binding assay of adenosine A2a receptor was performed using plasma membrane of HEK293 cells containing human A2a adenosine receptor (PerkinElmer, RB-HA2a) and radioligand [^3H]CGS21680 (PerkinElmer, NET1021). Assay was set up in 96-well polypropylene plate in total volume of 200 μL by sequentially adding 20 μL 1:20 diluted membrane, 130 μL assay buffer (50 mM Tris.HCl, pH7.4 10 mM MgCl2, 1 mM EDTA) containing [^3H] CGS21680, 50 μL diluted compound (4×) or vehicle control in assay buffer. Nonspecific binding was determined by […] NECA. Reaction was carried out at room temperature for 2 hours before filtering through 96-well GF/C filter plate pre-soaked in 50 mM Tris.HCl, pH7.4 containing 0.3% polyethylenimine. Plates were then washed 5 times with cold 50 mM Tris.HCl, pH7.4, dried and sealed at the bottom. Microscintillation fluid 30 μL was added to each well and the top sealed. Plates were counted on Packard Topcount for [^3H]. Data was analyzed in Microsoft Excel and GraphPad Prism programs. (Varani, K.; Gessi, S.; Dalpiaz, A.; Borea, P. A. British Journal of Pharmacology, 1996, 117, 1693)

In assay [2] the target is T2, human adenosine A1 receptor (Homo sapiens, UniProt P30542).
T2 construct: expressed in transfected cells; host or cells: CHO-K1
T2 sequence (P30542 1-326): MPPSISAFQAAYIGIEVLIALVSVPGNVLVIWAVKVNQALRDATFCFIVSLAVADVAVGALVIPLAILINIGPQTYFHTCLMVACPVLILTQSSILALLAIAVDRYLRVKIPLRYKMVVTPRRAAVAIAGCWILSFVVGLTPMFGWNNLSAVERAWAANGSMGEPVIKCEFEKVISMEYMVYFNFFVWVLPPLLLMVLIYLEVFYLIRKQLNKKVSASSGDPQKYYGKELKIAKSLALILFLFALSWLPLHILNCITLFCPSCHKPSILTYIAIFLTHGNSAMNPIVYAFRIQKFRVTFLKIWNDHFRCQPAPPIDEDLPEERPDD
Description: Adenosine A1 Receptor Functional Assay (A1GAL2). In kind it is cell-based. Conditions: CHO-K1 cells, cAMP inducible beta-galactosidase reporter, 4 nM r-PIA/1 uM Forskolin agonist challenge. The protocol:
Adenosine A1 Receptor Functional Assay (A1GAL2)
To initiate the functional assay, cryopreserved CHO-K1 cells overexpressing the human adenosine A1 receptor and containing a cAMP inducible beta-galactosidase reporter gene were thawed, centrifuged, DMSO containing media removed, and then seeded with fresh culture media into clear 384-well tissue culture treated plates (BD #353961) at a concentration of 10K cells/well. Prior to assay, these plates were cultured for two days at 37° C., 5% CO2, 90% Rh. On the day of the functional assay, culture media was removed and replaced with 45 uL assay medium (Hams/F-12 Modified (Mediatech #10-080CV) supplemented w/0.1% BSA). Test compounds were diluted and 11 point curves created at a 1000× concentration in 100% DMSO. Immediately after addition of assay media to the cell plates, 50 nL of the appropriate test compound antagonist or agonist control curves were added to cell plates using a Cartesian Hummingbird. Compound curves were allowed to incubate at room temperature on cell plates for approximately 15 minutes before addition of a 4 nM r-PIA (Sigma P4532)/1 uM Forskolin (Sigma F3917) agonist challenge (5 uL volume). A control curve of r-PIA in 1 uM Forskolin, a DMSO/Media control, and a single dose of Forskolin were also included on each plate. After additions, cell plates were allowed to incubate at 37° C., 5% CO2, 90% Rh for 5.5-6 hours. After incubation, media was removed, and cell plates were washed 1×50 uL with DPBS w/o Ca & Mg (Mediatech 21-031-CV). Into dry wells, 20 uL of 1× Reporter Lysis Buffer (Promega E3971 (diluted in dH2O from 5× stock)) was added to each well and plates frozen at −20° C. overnight. For β-galactosidase enzyme colorimetric assay, plates were thawed out at room temperature and 20 μL 2× assay buffer (Promega) was added to each well. Color was allowed to develop at 37° C., 5% CO2, 90% Rh for 1-1.5 h or until reasonable signal appeared. The colorimetric reaction was stopped with the addition of 60 μL/well 1M sodium carbonate. Plates were counted at 405 nm on a SpectraMax Microplate Reader (Molecular Devices). Data was analyzed in Microsoft Excel and IC/EC50 curves were fit using a standardized macro.

In assay [3] the target is T3, human adenosine A2a receptor (Homo sapiens, UniProt P29274).
T3 construct: expressed in transfected cells; host or cells: CHO-K1
Description: Adenosine A2a Receptor Functional Assay (A2AGAL2). In kind it is cell-based. The conditions noted are these: CHO-K1 cells, cAMP inducible beta-galactosidase reporter, 15 nM NECA agonist challenge. The protocol:
Adenosine A2a Receptor Functional Assay (A2AGAL2)
To initiate the functional assay, cryopreserved CHO-K1 cells overexpressing the human adenosine A2a receptor and containing a cAMP inducible beta-galactosidase reporter gene were thawed, centrifuged, DMSO containing media removed, and then seeded with fresh culture media into clear 384-well tissue culture treated plates (BD #353961) at a concentration of 10K cells/well. Prior to assay, these plates were cultured for two days at 37° C., 5% CO2, 90% Rh. On the day of the functional assay, culture media was removed and replaced with 45 uL assay medium (Hams/F-12 Modified (Mediatech #10-080CV) supplemented w/0.1% BSA). Test compounds were diluted and 11 point curves created at a 1000× concentration in 100% DMSO. Immediately after addition of assay media to the cell plates, 50 nL of the appropriate test compound antagonist or agonist control curves were added to cell plates using a Cartesian Hummingbird. Compound curves were allowed to incubate at room temperature on cell plates for approximately 15 minutes before addition of a 15 nM NECA (Sigma E2387) agonist challenge (5 uL volume). A control curve of NECA, a DMSO/Media control, and a single dose of Forskolin (Sigma F3917) were also included on each plate. After additions, cell plates were allowed to incubate at 37° C., 5% CO2, 90% Rh for 5.5-6 hours. After incubation, media was removed, and cell plates were washed 1×50 uL with DPBS w/o Ca & Mg (Mediatech 21-031-CV). Into dry wells, 20 uL of 1× Reporter Lysis Buffer (Promega E3971 (diluted in dH2O from 5× stock)) was added to each well and plates frozen at −20° C. overnight. For β-galactosidase enzyme colorimetric assay, plates were thawed out at room temperature and 20μL 2× assay buffer (Promega) was added to each well. Color was allowed to develop at 37° C., 5% CO2, 90% Rh for 1-1.5 h or until reasonable signal appeared. The calorimetric reaction was stopped with the addition of 60 μL/well 1M sodium carbonate. Plates were counted at 405 nm on a SpectraMax Microplate Reader (Molecular Devices). Data was analyzed in Microsoft Excel and IC/EC50 curves were fit using a standardized macro.

T3 sequence (P29274 whole entry): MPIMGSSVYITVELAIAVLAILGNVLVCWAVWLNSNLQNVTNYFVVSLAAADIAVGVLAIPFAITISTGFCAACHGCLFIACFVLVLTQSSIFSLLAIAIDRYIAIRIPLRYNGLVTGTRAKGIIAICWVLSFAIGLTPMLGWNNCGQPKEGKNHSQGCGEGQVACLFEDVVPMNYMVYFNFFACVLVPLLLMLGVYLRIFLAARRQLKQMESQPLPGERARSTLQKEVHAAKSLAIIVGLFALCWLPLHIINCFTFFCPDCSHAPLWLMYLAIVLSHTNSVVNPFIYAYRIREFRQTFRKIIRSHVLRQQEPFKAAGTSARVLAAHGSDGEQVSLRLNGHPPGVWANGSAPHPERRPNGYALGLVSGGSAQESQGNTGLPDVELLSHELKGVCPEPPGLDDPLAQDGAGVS
T1 sequence (P29274 whole entry): as above

The term Ki denotes a measure of affinity in units of concentration, obtained from inhibition or displacement. A high value points to a looser hold on the target. On to `CC(O)(c1cc2c(N)nc(-c3ccc(C(F)F)o3)nc2s1)c1ncccc1F` (stereo not drawn) [Example 30, 1-[4-Amino-2-(5-difluoromethyl-furan-2-yl)-thieno[2,3-d]pyrimidin-6-yl]-1-(3-fluoro-pyridin-2-yl)-ethanol], for which the Ki in assay [1] was determined as 16.3 nM; in assay [2], 403 nM; in assay [3], 11.4 nM.
